Species on record: Rattus norvegicus
Test: Open TG-GATES - Regimen: Single
Assay type: toxicity, organism-based, Sprague-Dawley
Parameters: regimen Single, gender Male, age 6 weeks
Conditions: in vivo, po, route gavage; for Bas / Eos / Fbg / Lym / Mono / RBC / Ret / WBC: tissue Blood; for KIDNEY_L / KIDNEY_R / KIDNEY_TOTAL: tissue Kidney
[1] = 60 mg/kg, 3 h, dose level Middle
[2] = 60 mg/kg, 3 h, tissue Plasma, dose level Middle
[3] = 60 mg/kg, 6 h, dose level Middle
[4] = 60 mg/kg, 6 h, tissue Plasma, dose level Middle
[5] = 60 mg/kg, 9 h, dose level Middle
[6] = 60 mg/kg, 9 h, tissue Plasma, dose level Middle
[7] = 60 mg/kg, 24 h, dose level Middle
[8] = 60 mg/kg, 24 h, tissue Plasma, dose level Middle
[9] = 200 mg/kg, 3 h, dose level High
[10] = 200 mg/kg, 3 h, tissue Plasma, dose level High
[11] = 200 mg/kg, 6 h, dose level High
[12] = 200 mg/kg, 6 h, tissue Plasma, dose level High
[13] = 200 mg/kg, 9 h, dose level High
[14] = 200 mg/kg, 9 h, tissue Plasma, dose level High
[15] = 200 mg/kg, 24 h, dose level High
[16] = 200 mg/kg, 24 h, tissue Plasma, dose level High

SMILES: C=C[C@H]1C[N@@]2CC[C@H]1C[C@@H]2[C@@H](O)c1ccnc2ccc(OC)cc12 [QUINIDINE]
- Bas [1]: 0%
- Eos [1]: 0.4%
- Fbg [1]: 295 mg/dL
- Lym [1]: 73.2%
- Mono [1]: 2.6%
- RBC [1]: 588 x10_4/ul
- Ret [1]: 7.6%
- WBC [1]: 87.1 x10_2/uL
- KIDNEY_L [1]: 1 g
- KIDNEY_R [1]: 1 g
- KIDNEY_TOTAL [1]: 2 g
- ALP [2]: 1472.8 IU/L
- CRE [2]: 0.2 mg/dL
- DBIL [2]: 0.002 mg/dL
- IP [2]: 9.1 mg/dL
- K [2]: 4 meq/L
- LDH [2]: 131.2 IU/L
- Na [2]: 140.6 meq/L
- PL [2]: 148.2 mg/dL
- RALB [2]: 2.9 g/dL
- TBIL [2]: 0.026 mg/dL
- TG [2]: 56.2 mg/dL
- TP [2]: 5.2 g/dL
- gamma-GTP [2]: 2.2 IU/L
- TERMINAL_BW [3]: 218.5 g
- Bas [3]: 0%
- Eos [3]: 0.8%
- Fbg [3]: 301.2 mg/dL
- Lym [3]: 79.8%
- Mono [3]: 2.2%
- RBC [3]: 623.4 x10_4/ul
- Ret [3]: 6.6%
- WBC [3]: 77.2 x10_2/uL
- KIDNEY_L [3]: 1 g
- KIDNEY_R [3]: 1 g
- KIDNEY_TOTAL [3]: 2 g
- ALP [4]: 1426.2 IU/L
- CRE [4]: 0.2 mg/dL
- DBIL [4]: 0.002 mg/dL
- IP [4]: 9.1 mg/dL
- K [4]: 4.3 meq/L
- LDH [4]: 136.2 IU/L
- Na [4]: 142.6 meq/L
- PL [4]: 149.4 mg/dL
- RALB [4]: 3 g/dL
- TBIL [4]: 0.022 mg/dL
- TG [4]: 83.2 mg/dL
- TP [4]: 5.3 g/dL
- gamma-GTP [4]: 1.4 IU/L
- TERMINAL_BW [5]: 207.3 g
- Bas [5]: 0%
- Eos [5]: 0.8%
- Fbg [5]: 300 mg/dL
- Lym [5]: 77%
- Mono [5]: 1.6%
- RBC [5]: 622.8 x10_4/ul
- Ret [5]: 6.8%
- WBC [5]: 59.2 x10_2/uL
- KIDNEY_L [5]: 1 g
- KIDNEY_R [5]: 1 g
- KIDNEY_TOTAL [5]: 2 g
- ALP [6]: 1460.8 IU/L
- CRE [6]: 0.2 mg/dL
- DBIL [6]: 0.002 mg/dL
- IP [6]: 9.6 mg/dL
- K [6]: 4.4 meq/L
- LDH [6]: 141.8 IU/L
- Na [6]: 143.8 meq/L
- PL [6]: 139.8 mg/dL
- RALB [6]: 3 g/dL
- TBIL [6]: 0.024 mg/dL
- TG [6]: 74 mg/dL
- TP [6]: 5.4 g/dL
- gamma-GTP [6]: 1 IU/L
- TERMINAL_BW [7]: 225.2 g
- Bas [7]: 0%
- Eos [7]: 0.8%
- Fbg [7]: 337.8 mg/dL
- Lym [7]: 72.4%
- Mono [7]: 3.4%
- RBC [7]: 650.2 x10_4/ul
- Ret [7]: 6.9%
- WBC [7]: 95.3 x10_2/uL
- KIDNEY_L [7]: 1 g
- KIDNEY_R [7]: 1 g
- KIDNEY_TOTAL [7]: 2 g
- ALP [8]: 1697 IU/L
- CRE [8]: 0.1 mg/dL
- DBIL [8]: 0 mg/dL
- IP [8]: 8.1 mg/dL
- K [8]: 4.1 meq/L
- LDH [8]: 181.4 IU/L
- Na [8]: 141 meq/L
- RALB [8]: 3 g/dL
- TBIL [8]: 0.014 mg/dL
- TP [8]: 5.6 g/dL
- gamma-GTP [8]: 1.4 IU/L
- TERMINAL_BW [9]: 218.1 g
- Bas [9]: 0%
- Eos [9]: 0.8%
- Fbg [9]: 267 mg/dL
- Lym [9]: 76.2%
- Mono [9]: 2.2%
- RBC [9]: 571.6 x10_4/ul
- Ret [9]: 6.9%
- WBC [9]: 60.8 x10_2/uL
- KIDNEY_L [9]: 1 g
- KIDNEY_R [9]: 1 g
- KIDNEY_TOTAL [9]: 2 g
- ALP [10]: 1429.4 IU/L
- CRE [10]: 0.2 mg/dL
- DBIL [10]: 0.002 mg/dL
- GLC [10]: 172 mg/dL
- IP [10]: 9.1 mg/dL
- K [10]: 4 meq/L
- LDH [10]: 121 IU/L
- Na [10]: 140.6 meq/L
- PL [10]: 126.8 mg/dL
- RALB [10]: 2.9 g/dL
- TBIL [10]: 0.02 mg/dL
- TC [10]: 66.2 mg/dL
- TG [10]: 46.8 mg/dL
- TP [10]: 5.1 g/dL
- gamma-GTP [10]: 1.4 IU/L
- TERMINAL_BW [11]: 221.5 g
- Bas [11]: 0%
- Eos [11]: 0.8%
- Fbg [11]: 318.2 mg/dL
- Lym [11]: 76.4%
- Mono [11]: 2.2%
- RBC [11]: 584.8 x10_4/ul
- Ret [11]: 7.5%
- WBC [11]: 76 x10_2/uL
- KIDNEY_L [11]: 1 g
- KIDNEY_R [11]: 1 g
- KIDNEY_TOTAL [11]: 2 g
- ALP [12]: 1392.8 IU/L
- CRE [12]: 0.2 mg/dL
- DBIL [12]: 0.004 mg/dL
- IP [12]: 8.7 mg/dL
- K [12]: 4.3 meq/L
- LDH [12]: 181.8 IU/L
- Na [12]: 142 meq/L
- RALB [12]: 3 g/dL
- TBIL [12]: 0.024 mg/dL
- TC [12]: 86.4 mg/dL
- TG [12]: 55.4 mg/dL
- TP [12]: 5.4 g/dL
- gamma-GTP [12]: 1.2 IU/L
- TERMINAL_BW [13]: 218.2 g
- Bas [13]: 0%
- Eos [13]: 0.8%
- Fbg [13]: 309.8 mg/dL
- Lym [13]: 74%
- Mono [13]: 1.6%
- RBC [13]: 591 x10_4/ul
- Ret [13]: 6.5%
- WBC [13]: 63.2 x10_2/uL
- KIDNEY_L [13]: 1 g
- KIDNEY_R [13]: 1 g
- KIDNEY_TOTAL [13]: 2 g
- ALP [14]: 1558.2 IU/L
- CRE [14]: 0.1 mg/dL
- DBIL [14]: 0.004 mg/dL
- IP [14]: 8.9 mg/dL
- K [14]: 4.4 meq/L
- LDH [14]: 118.4 IU/L
- Na [14]: 142.6 meq/L
- PL [14]: 148.2 mg/dL
- RALB [14]: 3 g/dL
- TBIL [14]: 0.028 mg/dL
- TG [14]: 71.6 mg/dL
- TP [14]: 5.4 g/dL
- gamma-GTP [14]: 1.2 IU/L
- TERMINAL_BW [15]: 231.5 g
- Bas [15]: 0%
- Eos [15]: 0.8%
- Fbg [15]: 319.6 mg/dL
- Lym [15]: 74.8%
- Mono [15]: 3%
- RBC [15]: 633.6 x10_4/ul
- Ret [15]: 7.1%
- WBC [15]: 84.6 x10_2/uL
- KIDNEY_L [15]: 1 g
- KIDNEY_R [15]: 1.1 g
- KIDNEY_TOTAL [15]: 2.1 g
- ALP [16]: 1496.4 IU/L
- CRE [16]: 0.1 mg/dL
- DBIL [16]: 0.002 mg/dL
- IP [16]: 9.1 mg/dL
- K [16]: 4.1 meq/L
- LDH [16]: 144.2 IU/L
- Na [16]: 141 meq/L
- PL [16]: 146.8 mg/dL
- RALB [16]: 3 g/dL
- TBIL [16]: 0.01 mg/dL
- TP [16]: 5.6 g/dL
- gamma-GTP [16]: 1.6 IU/L

Reference: ChEMBL document CHEMBL3885861, “Open TG-GATES”
